Like-named read-outs stand apart in the source and are kept apart here.
Key:
[1] = Drug concentrations in plasma of guinea-pigs; assay type: in vivo; details: anaesthetized guinea-pig
[2] = system: anaesthetized guinea-pigs; test: Heart rate and mean blood pressure recordings in anaesthetized guinea-pigs; assay type: in vivo, guinea-pig; details: limited the maximum dose to 3 mg kg^−1
plasma proteins = details: human; cited from earlier work
[3] = target: T1, hERG potassium channels stably expressed in CHO-K1 cells (Homo sapiens, UniProt Q12809); details: for hERG inhibition (in words): group C drugs: at the highest concentration permitted by solubility
T1 sequence (Q12809 whole entry): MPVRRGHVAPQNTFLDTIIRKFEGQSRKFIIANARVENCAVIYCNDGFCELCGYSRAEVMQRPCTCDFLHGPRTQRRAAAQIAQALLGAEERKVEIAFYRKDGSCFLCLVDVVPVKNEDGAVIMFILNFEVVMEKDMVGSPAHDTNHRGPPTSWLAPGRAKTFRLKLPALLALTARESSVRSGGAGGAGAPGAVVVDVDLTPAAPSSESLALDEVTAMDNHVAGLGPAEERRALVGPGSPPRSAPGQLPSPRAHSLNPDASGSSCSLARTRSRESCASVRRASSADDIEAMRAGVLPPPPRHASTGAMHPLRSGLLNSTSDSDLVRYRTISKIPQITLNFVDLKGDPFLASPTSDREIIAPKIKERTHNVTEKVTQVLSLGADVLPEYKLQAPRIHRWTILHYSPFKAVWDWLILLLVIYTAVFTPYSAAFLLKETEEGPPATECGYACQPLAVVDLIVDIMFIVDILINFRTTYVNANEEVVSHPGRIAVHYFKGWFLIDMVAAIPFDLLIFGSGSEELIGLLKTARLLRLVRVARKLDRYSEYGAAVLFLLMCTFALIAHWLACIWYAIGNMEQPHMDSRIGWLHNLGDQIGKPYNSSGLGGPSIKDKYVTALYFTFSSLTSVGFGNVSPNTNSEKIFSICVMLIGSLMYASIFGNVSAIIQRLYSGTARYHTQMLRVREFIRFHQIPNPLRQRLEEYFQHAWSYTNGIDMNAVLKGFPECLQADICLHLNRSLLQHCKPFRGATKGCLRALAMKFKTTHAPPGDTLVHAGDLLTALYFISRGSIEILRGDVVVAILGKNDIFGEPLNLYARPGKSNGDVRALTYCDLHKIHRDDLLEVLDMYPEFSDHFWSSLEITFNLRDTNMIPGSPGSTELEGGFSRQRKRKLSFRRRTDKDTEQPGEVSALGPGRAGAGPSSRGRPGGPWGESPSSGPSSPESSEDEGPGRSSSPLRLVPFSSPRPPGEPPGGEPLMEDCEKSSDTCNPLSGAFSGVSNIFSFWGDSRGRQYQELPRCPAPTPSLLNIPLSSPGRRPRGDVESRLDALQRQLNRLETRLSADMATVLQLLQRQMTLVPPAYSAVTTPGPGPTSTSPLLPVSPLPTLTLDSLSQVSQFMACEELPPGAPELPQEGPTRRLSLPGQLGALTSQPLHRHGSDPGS

[4] = target: T1, hERG potassium channels stably expressed in CHO-K1 cells; test: cell-based; details: 25 °C, 400-ms pulse protocol
[5] = system: anaesthetized guinea-pigs (QTc interval of the ECG); test: Anaesthetized guinea-pig QT; assay type: in vivo; details: for QTc increase of 5% over vehicle (risk signal): low, medium and high doses; for increase (change) of baseline-corrected QTc over vehicle / mean baseline-corrected QTc: highest dose level; for increase (change) of baseline-corrected QTc over vehicle / mean baseline-corrected QTc / effect on QT/QTc interval in the guinea-pig model (in words): i.v. infusion over 10 min
[6] = read-out: Human plasma Cmax; single 400 mg dose in humans; cited from earlier work

O=C(CCCN1CC=C(n2c(=O)[nH]c3ccccc32)CC1)c1ccc(F)cc1 [Droperidol]
Peak plasma level ([1]; 0.03 mg kg^−1 i.v. over 10 min): 0.55±0.07 (3) μm
Peak plasma level ([1]; 0.1 mg kg^−1 i.v. over 10 min): 0.62±0.05 (5) μm
Peak plasma level ([1]; 0.3 mg kg^−1 i.v. over 10 min): 1.21±0.34 (5) μm

CC(C)(C)c1ccc(C(O)CCCN2CCC(C(O)(c3ccccc3)c3ccccc3)CC2)cc1 (stereo not shown) [Terfenadine]
haemodynamic effects (in words) [2]: marked bradycardia and resultant hypotension

O=C(CCCN1CCC(O)(c2ccc(Cl)cc2)CC1)c1ccc(F)cc1 [Haloperidol]
Protein binding (plasma proteins): 90%
Free safety margin (hERG IC50/ free Cmax) ([3]; human, pH 7.4): 1.4
Total safety margin (hERG IC50/ total Cmax) ([3]; human, pH 7.4): 0.1

C=C[C@H]1C[N@@]2CC[C@H]1C[C@@H]2[C@@H](O)c1ccnc2ccc(OC)cc12 [Quinidine]
Peak plasma level ([1]; 3 mg kg^−1 i.v. over 10 min): 6.2±0.08 (3) μm
Peak plasma level ([1]; 10 mg kg^−1 i.v. over 10 min): 27.8±8.0 (5) μm

CC(C)NCC(O)c1ccc(NS(C)(=O)=O)cc1 (racemic) [D,L-Sotalol]
Peak plasma level ([1]; 1 mg kg^−1 i.v. over 10 min): 18.2±1.5 (5) μm
Peak plasma level ([1]; 3 mg kg^−1 i.v. over 10 min): 41.3±4.8 (4) μm
Peak plasma level ([1]; 10 mg kg^−1 i.v. over 10 min): 145.9±16.6 (5) μm

O=C1Cc2cc(CCN3CCN(c4nsc5ccccc45)CC3)c(Cl)cc2N1 [Ziprasidone]
Peak plasma level ([1]; 0.1 mg kg^−1 i.v. over 10 min): 1.1±0.2 (4) μm
Peak plasma level ([1]; 0.3 mg kg^−1 i.v. over 10 min): 1.2±0.1 (2) μm
Peak plasma level ([1]; 1 mg kg^−1 i.v. over 10 min): 4.0±2.2 (2) μm
Free safety margin (hERG IC50/ free Cmax) ([3]; human, pH 7.4): 286.45
Total safety margin (hERG IC50/ total Cmax) ([3]; human, pH 7.4): 0.573

CC1(C)S[C@@H]2[C@H](NC(=O)[C@H](N)c3ccc(O)cc3)C(=O)N2[C@H]1C(=O)O [Amoxicillin]
Peak plasma level ([1]; 3 mg kg^−1 i.v. over 10 min): 4.8±0.5 (5) μm
Peak plasma level ([1]; 10 mg kg^−1 i.v. over 10 min): 14.6±1.4 (4) μm
Peak plasma level ([1]; 20 mg kg^−1 i.v. over 10 min): 30.3±2.5 (5) μm

COc1cc(N)c(Cl)cc1C(=O)NC1CCN(CCCOc2ccc(F)cc2)CC1OC (stereo not shown) [Cisapride]
Peak plasma level ([1]; 0.1 mg kg^−1 i.v. over 10 min): 0.037±0.023 (4) μm
Peak plasma level ([1]; 0.3 mg kg^−1 i.v. over 10 min): 0.129±0.032 (4) μm
Peak plasma level ([1]; 1 mg kg^−1 i.v. over 10 min): 0.496±0.085 (5) μm

CC(=O)Oc1ccccc1C(=O)O [Aspirin]
IC50 [4]: > 100000 µM
Peak plasma level ([1]; 1 mg kg^−1 i.v. over 10 min): 31.1±2.3 (5) μm
Peak plasma level ([1]; 3 mg kg^−1 i.v. over 10 min): 74.6±2.1 (5) μm
Peak plasma level ([1]; 10 mg kg^−1 i.v. over 10 min): 468±78 (4) μm
QTc increase of 5% over vehicle (risk signal) [5]: did not reach the 5% increase of QTc
hERG inhibition (in words) [3]: no hERG inhibition was observed
Free safety margin (hERG IC50/ free Cmax) ([3]; hERG IC50 divided by human free plasma Cmax): >4512
Free safety margin (hERG IC50/ free Cmax) ([3]; hERG IC50 divided by human free plasma Cmax, listed as aspirin): above 300

COc1c(N2C[C@@H]3CCCN[C@@H]3C2)c(F)cc2c(=O)c(C(=O)O)cn(C3CC3)c12 [Moxifloxacin]
Cmax [6]: ~7 µM
Peak plasma level ([1]; 1 mg kg^−1 i.v. over 10 min): 2.08±0.28 (4) μm
Peak plasma level ([1]; 5 mg kg^−1 i.v. over 10 min): 30.6±7.2 (4) μm
Peak plasma level ([1]; 10 mg kg^−1 i.v. over 10 min): 80.5±4.0 (5) μm
increase (change) of baseline-corrected QTc over vehicle [5]: 16.8%
mean baseline-corrected QTc [5]: 18.3%
effect on QT/QTc interval in the guinea-pig model (in words) [5]: dose-dependent QTc prolongation

C[C@@H]1CN(c2c(F)c(N)c3c(=O)c(C(=O)O)cn(C4CC4)c3c2F)C[C@H](C)N1 [Sparfloxacin]
IC50 [4]: 24 µM
Peak plasma level ([1]; 3 mg kg^−1 i.v. over 10 min): 23.5±4.2 (3) μm
Peak plasma level ([1]; 10 mg kg^−1 i.v. over 10 min): 80.4±9.1 (5) μm
Peak plasma level ([1]; 30 mg kg^−1 i.v. over 10 min): 159.4±22.4 (4) μm
increase (change) of baseline-corrected QTc over vehicle [5]: 19.6%
mean baseline-corrected QTc [5]: 20.0%
Free safety margin (hERG IC50/ free Cmax) ([3]; human, pH 7.4): 3.757
Total safety margin (hERG IC50/ total Cmax) ([3]; human, pH 7.4): 2.477

C[C@H](CS)C(=O)N1CCC[C@H]1C(=O)O [Captopril]
Peak plasma level ([1]; 3 mg kg^−1 i.v. over 10 min): 57.8±1.6 (2) μm
Peak plasma level ([1]; 10 mg kg^−1 i.v. over 10 min): 142±15 (2) μm
Peak plasma level ([1]; 30 mg kg^−1 i.v. over 10 min): 313±112 (2) μm
increase (change) of baseline-corrected QTc over vehicle [5]: −7.3%
mean baseline-corrected QTc [5]: −6.0%
effect on QT/QTc interval in the guinea-pig model (in words) [5]: QTc actually dropped below vehicle
QTc increase of 5% over vehicle (risk signal) [5]: did not reach the 5% increase of QTc
hERG inhibition (in words) [3]: no hERG inhibition was observed

CC/C(=C(\c1ccccc1)c1ccc(OCCN(C)C)cc1)c1ccccc1 [Tamoxifen]
Peak plasma level ([1]; 3 mg kg^−1 i.v. over 10 min): 3.8±0.8 (4) μm
Peak plasma level ([1]; 10 mg kg^−1 i.v. over 10 min): 10.5±2.1 (5) μm
Peak plasma level ([1]; 30 mg kg^−1 i.v. over 10 min): 60.0±20.0 (5) μm
mean baseline-corrected QTc [5]: 8.4%

CC(C)NCC(O)COc1cccc2ccccc12 (stereo not shown) [Propranolol]
Protein binding (plasma proteins): 85%
Peak plasma level ([1]; 0.3 mg kg^−1 i.v. over 10 min): 0.50±0.03 (3) μm
Peak plasma level ([1]; 1 mg kg^−1 i.v. over 10 min): 1.84±0.41 (3) μm
Peak plasma level ([1]; 3 mg kg^−1 i.v. over 10 min): 4.65±0.40 (5) μm
QTc increase of 5% over vehicle (risk signal) [5]: did not reach the 5% increase of QTc

COc1ccc(CCN(C)CCCC(C#N)(c2ccc(OC)c(OC)c2)C(C)C)cc1OC (stereo not shown) [Verapamil]
QTc increase of 5% over vehicle (risk signal) [5]: did not reach the 5% increase of QTc

— article PMC2442905 (British Journal of Pharmacology, 2008)
